Where “and” joins values, the source holds several entries; their conditions need not be identical. Equal entries are not always repeated. Where two headings read alike, the source gives them in different places. Each block holds one molecule with its values, some of them ahead of it. No end group written: not given here.
How the values were obtained:
Eph receptor Fc proteins = assay: Immobilized biotinylated peptides capturing Eph receptor Fc proteins on streptavidin plates; type: binding; conditions: for Eph receptor binding selectivity of immobilized biotinylated peptide: A- and B-class Eph receptor Fc proteins
Experimental: To measure the specificity of peptide binding to Eph receptors, biotinylated peptides were immobilized on streptavidin-coated plates at 10 μM (Pierce Biotechnology, Rockford, Ill.) and incubated for 1 hr with different Eph ectodomain Fc fusion proteins at 2.5 μg/ml in binding buffer. Bound receptor was detected using an anti-Fc antibody coupled to alkaline phosphatase (Promega) with p-nitrophenylphosphate as substrate (Pierce). The background that was subtracted from the measurements was determined by omitting the Eph ectodomain.
Biotinylated peptides were immobilized on streptavidin-coated plates and used to capture Eph receptor Fc proteins. Bound receptor was detected using anti-Fc antibody coupled to alkaline phosphatase and was normalized to the value in the well with highest receptor binding.

[1] = Solubility in aqueous buffers; type: physicochemical
From the text: To determine whether different phage clones target overlapping Eph receptor binding sites, the EWLS EphB1-binding peptide and the TNYL EphB4-binding peptide were chemically synthesized. […] Peptides were synthesized using Fmoc (N-(9-fluorenyl)methoxycarbonyl) chemistry and purified by high pressure liquid chromatography. Biotinylated peptides were synthesized with a carboxy-terminal GSGSK linker with biotin attached to the lysine side chain or with a carboxy-terminal GSGS sequence linked to a carboxy-terminal N-biotinyl-N′-Fmoc-ethylenediamine (Novabiochem). Matrix-assisted laser desorption ionization-time of flight mass spectrometry was used to verify proper peptide synthesis, and purity. Stock solutions of the peptides were dissolved in phosphate buffered saline (PBS, Irvine Scientific) and the pH was verified to be ˜6.5. […] Peptide concentrations were calculated based on (O)280.

EphB4 [2] = target: T1, EphB4 (Homo sapiens, UniProt P54760); assay: Peptide pull-down of EphB4 from MCF7 or transfected 293T cells; type: binding
T1 construct: MCF-7 human breast cancer cells, which endogenously express EphB4; endogenous in cells; host or cells: MCF7
T1 sequence (P54760 16-987): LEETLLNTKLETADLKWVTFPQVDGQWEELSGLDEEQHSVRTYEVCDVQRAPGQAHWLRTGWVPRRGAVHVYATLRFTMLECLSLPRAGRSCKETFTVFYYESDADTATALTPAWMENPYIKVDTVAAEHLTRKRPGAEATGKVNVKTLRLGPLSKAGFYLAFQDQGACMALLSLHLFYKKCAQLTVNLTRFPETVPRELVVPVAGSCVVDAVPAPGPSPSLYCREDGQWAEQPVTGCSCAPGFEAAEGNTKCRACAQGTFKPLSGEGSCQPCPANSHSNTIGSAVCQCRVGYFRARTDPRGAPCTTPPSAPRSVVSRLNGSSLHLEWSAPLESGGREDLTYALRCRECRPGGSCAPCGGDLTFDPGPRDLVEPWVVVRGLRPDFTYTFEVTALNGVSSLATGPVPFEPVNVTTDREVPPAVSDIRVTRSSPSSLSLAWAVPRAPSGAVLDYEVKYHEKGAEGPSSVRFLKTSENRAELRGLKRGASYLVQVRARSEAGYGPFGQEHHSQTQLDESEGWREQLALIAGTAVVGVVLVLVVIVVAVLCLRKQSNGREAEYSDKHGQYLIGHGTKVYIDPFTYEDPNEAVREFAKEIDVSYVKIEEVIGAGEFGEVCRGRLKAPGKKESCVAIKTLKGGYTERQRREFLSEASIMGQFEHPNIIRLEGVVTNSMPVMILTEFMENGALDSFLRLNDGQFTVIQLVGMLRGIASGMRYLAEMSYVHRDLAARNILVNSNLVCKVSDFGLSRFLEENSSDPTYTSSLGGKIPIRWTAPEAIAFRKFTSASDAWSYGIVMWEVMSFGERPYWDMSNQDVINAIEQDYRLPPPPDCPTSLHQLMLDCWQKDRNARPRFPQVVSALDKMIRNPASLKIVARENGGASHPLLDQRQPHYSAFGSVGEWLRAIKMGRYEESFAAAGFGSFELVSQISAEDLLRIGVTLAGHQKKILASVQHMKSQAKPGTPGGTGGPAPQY
Experimental: The ability of the peptides to bind in a stable manner, which is important for both targeting and competitive inhibition, was tested in pull-down experiments. For peptide pull-down experiments, cells in 60 cm plates at 70% confluency or adult mouse brain tissue were solubilized in pull-down buffer (50 mM HEPES pH 7.5, 150 mM NaCl, 10% glycerol, 1% Triton-X100, 5 mM KCl and 1 mM EDTA). Three μg of biotinylated peptide were incubated for 45-90 min with 5 μl streptavidin agarose beads (Sigma), unbound peptide was washed away, and the beads were incubated with the cell lysates for 45-90 min. Proteins bound to the beads were separated by SDS-polyacrylamide gel electrophoresis and probed by immunoblotting with EphB1, EphB2, or EphB4 antibodies. The EphB1 antibody (Santa Cruz) was detected with a secondary anti-goat IgG peroxidase-conjugated antibody (BioRad Laboratories). The EphB2 and EphB4 antibodies were affinity-purified polyclonal antibodies to GST fusion proteins containing approximately 100 amino acids from the carboxy-terminal tails of the EphB2 or EphB4 receptors (Noren, N. K. et al. 2004 PNAS USA 101:5583-5588; Holash, J. A. & Pasquale, E. B. 1995 Devel Biol 172:683-693) and were detected with a secondary anti-rabbit IgG peroxidase-conjugated antibody (Amersham Biosciences).
Endogenous EphB receptors were isolated from lysates of mouse brain or cultured cells using the EWLS, SNEW, and TNYL peptides immobilized on streptavidin beads (FIGS. 5B, F, G and H). […] RTVA was used as a control peptide for the EphB4 pull downs. The NPVI peptide could isolate EphB4 from transfected cells but not endogenous EphB4 from MCF7 cells, which is present at lower levels (FIGS. 5B, F, G and H). […] EphB receptors were not detected bound to the beads coated with the other peptides.

EphB4 [3] = target: T2, EphB4 (Homo sapiens, UniProt P54760); assay: Inhibition of ephrin-B2 AP binding to immobilized EphB4 ectodomain
T2 construct: panned on the ectodomains of EphB1, EphB2, or EphB4 fused to human Fc
T2 sequence (P54760 16-539 limits assumed): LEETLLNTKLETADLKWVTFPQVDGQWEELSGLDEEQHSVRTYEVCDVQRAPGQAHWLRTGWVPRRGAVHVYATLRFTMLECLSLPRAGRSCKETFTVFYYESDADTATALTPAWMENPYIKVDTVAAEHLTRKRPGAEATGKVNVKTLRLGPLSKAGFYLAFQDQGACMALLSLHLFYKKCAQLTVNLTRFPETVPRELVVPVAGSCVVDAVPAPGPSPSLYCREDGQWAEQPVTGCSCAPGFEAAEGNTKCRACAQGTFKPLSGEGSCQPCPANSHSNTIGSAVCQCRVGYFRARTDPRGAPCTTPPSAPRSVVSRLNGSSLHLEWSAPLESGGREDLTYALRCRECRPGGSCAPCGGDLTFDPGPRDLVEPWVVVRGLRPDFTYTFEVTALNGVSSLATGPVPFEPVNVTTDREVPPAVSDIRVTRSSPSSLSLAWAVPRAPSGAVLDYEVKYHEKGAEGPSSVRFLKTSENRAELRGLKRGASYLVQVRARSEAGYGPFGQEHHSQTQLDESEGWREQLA
Experimental: Peptides that bind to the same receptor region as the ephrins would be expected to inhibit Eph receptor-ephrin association, if they interact with sufficient affinity. A number of synthetic peptides were tested for their ability to inhibit binding of alkaline phosphatase-tagged ephrin-B2 (ephrin-B2-AP) to EphB receptors (FIG. 3). Most of the peptides were synthesized with a biotin tag and immobilized on streptavidin plates to verify their ability to capture the EphB ectodomains used for their isolation.
Ephrin-B2 AP binding to the indicated immobilized EphB receptor ectodomains was measured in the presence of the indicated peptides and detected by measuring alkaline phosphatase activity. […]. […] Wells coated with the different EphB ectodomains were incubated with ephrin-B2 AP and 50 μM of the indicated peptides. Ephrin-B2 AP binding in the presence of peptide was normalized to binding in the absence of peptide. All peptides were biotinylated except for FSPQ and EWYM. […] Therefore, IPWT was not used for further experiments. The EWYM, TWO, and FSPQ peptides were not synthesized with a biotin tag and therefore were tested directly for inhibition of ephrin-B2 binding. The EWLS, SNEW, and TNYL peptides were selective because they antagonized ephrin binding to only one EphB receptor (FIGS. 3B, D, and F).
The GP motif aligns with the GP motif of TNYL and the RAW motif aligns precisely next to the last amino acid of TNYL. […] For competition assays between peptides and ephrin-B2 alkaline phosphatase fusion protein (ephrin-B2 AP), the concentration of ephrin-B2 AP used was adjusted to obtain similar signals with different EphB receptors (0.135-1.45 OD min^−1ml^−1). Ephrin-B2 AP was co-incubated for 1 hr with different peptide concentrations in Ni-NTA wells coated with 1 μg/ml Eph receptor Fc. After several washes, the amount of ephrin-B2-AP bound was quantified using p-nitrophenylphosphate as a substrate. Alkaline phosphatase activity from wells without EphB Fc was subtracted as background. […] […]. In these experiments, the two peptides are not biotinylated. […] Ephrin-B2-AP binding in the presence of peptide was normalized to binding in the absence of peptide in (A) and (B). […] Endogenous EphB4 was immunoprecipitated from MCF7 breast cancer cells after stimulation with ephrin-B2 Fc, or Fc as a control, and probed by immunoblotting with anti-phosphotyrosine antibodies (PTyr). […] The filters were reprobed with EphB4 antibodies to confirm equal amounts of immunoprecipitated receptor.

EphB4 [4] = target: T1, EphB4; assay: Ephrin-B2 Fc-induced EphB4 tyrosine phosphorylation in breast cancer cells; type: cell-based; conditions: MCF7 cells
Experimental: Preincubation of COS cells with the SNEW peptide in a concentration-dependent manner blocked the ability of ephrin-B1 Fc to induce tyrosine phosphorylation, and therefore activation, of endogenous EphB2 (FIG. 4A). EphB2 was immunoprecipitated from COS cells after stimulation with ephrin-B1 Fc, or Fc as a control, in the presence of the indicated concentrations of SNEW peptide and control RTVA peptide. For EphB2 immunoprecipitations, COS cells were serum-starved in DME high glucose for 3 hrs prior to stimulation with 1 μg/ml ephrin-B1 Fc or Fc protein in the presence or absence of EphB2-binding peptides or a control peptide. […] After ephrin stimulation, the cells were lysed in modified RIPA buffer (150 mM NaCl, 1 mM EDTA, 1% Triton X-100, 1% Na deoxycholate, 0.1% SDS, 20 mM Tris pH 8.0) with protease inhibitors and 1 mM sodium orthovanadate. Cell lysates were used for immunoprecipitation with either 5 μg EphB2 antibodies or 10 μg EphB4 antibodies. […]
The GP motif aligns with the GP motif of TNYL and the RAW motif aligns precisely next to the last amino acid of TNYL. […] After several washes, the amount of ephrin-B2-AP bound was quantified using p-nitrophenylphosphate as a substrate. […]

EphB receptors = assay: Ephrin-B2 AP binding to different EphB ectodomains in presence of peptide (selectivity); conditions: 10 μM peptide
Experimental: Ephrin-B2 AP binding to the indicated immobilized EphB receptor ectodomains was measured in the presence of the indicated peptides and detected by measuring alkaline phosphatase activity. […] Wells coated with the different EphB ectodomains were incubated with ephrin-B2 AP and 50 μM of the indicated peptides. Ephrin-B2 AP binding in the presence of peptide was normalized to binding in the absence of peptide. All peptides were biotinylated except for FSPQ and EWYM. […] The EWYM, TWO, and FSPQ peptides were not synthesized with a biotin tag and therefore were tested directly for inhibition of ephrin-B2 binding.
Ephrin-B2 AP was co-incubated for 1 hr with different peptide concentrations in Ni-NTA wells coated with 1 μg/ml Eph receptor Fc. After several washes, the amount of ephrin-B2-AP bound was quantified using p-nitrophenylphosphate as a substrate. Alkaline phosphatase activity from wells without EphB Fc was subtracted as background. […] In these experiments, the two peptides are not biotinylated. […] Ephrin-B2-AP binding in the presence of peptide was normalized to binding in the absence of peptide in (A) and (B).

[5] = Peptide IC50: concentration of peptide required to inhibit ephrin-B2 AP binding by 50%, biotinylated synthetic peptides except EWYM and FSPQ

Molecule: NPVIGPIQRAWT [SEQ ID NO 27]
Pull-down of endogenous EphB4 (EphB4 [2]; MCF7 breast cancer cell line): did not detectably bind | Pull-down of transfected EphB4 (EphB4 [2]; transfected 293T human embryonic kidney cells): bound the more highly expressed EphB4

Molecule: CC[C@H](C)[C@H](NC(=O)[C@@H]1CCCN1C(=O)CNC(=O)[C@H](CC(N)=O)NC(=O)[C@@H]1CCCN1C(=O)[C@H](CO)NC(=O)[C@H](Cc1ccccc1)NC(=O)[C@H](CC(C)C)NC(=O)[C@H](Cc1ccc(O)cc1)NC(=O)[C@H](CC(N)=O)NC(=O)[C@@H](N)[C@@H](C)O)C(=O)N[C@@H](C)C(=O)O [SEQ ID NO 24]
IC50 (EphB4 [3]; [5]): ~50 µM | IC50 (EphB4 [3]; non-biotinylated peptide, read-out: IC50 for inhibition of ephrin-B2 AP binding): 150 µM and ~150 µM

Molecule: TNYLFSPNGPIARAW [TNYL-RAW]
Inhibition of basal EphB4 tyrosine phosphorylation (EphB4 [4]): inhibited | Inhibition of ephrin-B2 Fc-induced EphB4 tyrosine phosphorylation (EphB4 [4]; concentration-dependent): inhibited in a concentration-dependent manner EphB4 tyrosine phosphorylation | Selectivity of antagonism of ephrin-B2 AP binding across EphB ectodomains (EphB receptors): inhibits binding of ephrin-B2 AP to the immobilized EphB4 ectodomain but not other EphB ectodomains | IC50 (EphB4 [3]; non-biotinylated peptide or dimeric ephrin-B2 Fc, read-out: IC50 for inhibition of ephrin-B2 AP binding to EphB4): ~0.015 µM

Molecule: DHNHNLYNPWRL [SEQ ID NO 21]
IC50 (EphB4 [3]; [5]): ~200 µM

The next lines start with the values.

Eph receptor binding selectivity of immobilized biotinylated peptide (Eph receptor Fc proteins): less specific
Molecule: SEQ ID NO 10: 12-mer from EphB2 panning; printed DHWRI[image]PFSLSS (DHWRILPFSLSS)

Solubility in aqueous buffers [1]: low solubility
Molecule: CC[C@H](C)[C@H](NC(=O)[C@H](C)NC(=O)[C@H](Cc1ccccc1)NC(=O)[C@@H]1CCCN1C(=O)[C@H](CCC(=O)O)NC(=O)[C@@H](NC(=O)[C@@H](NC(=O)[C@H](Cc1c[nH]c2ccccc12)NC(=O)[C@H](Cc1c[nH]cn1)NC(=O)[C@@H](N)Cc1c[nH]c2ccccc12)[C@@H](C)O)[C@@H](C)CC)C(=O)N[C@H](C(=O)N[C@@H](CO)C(=O)O)[C@@H](C)O [SEQ ID NO 8]

Capture of the EphB ectodomain used for isolation by immobilized biotinylated peptide (Eph receptor Fc proteins; EphB4): failed to bind
Molecule: SEQ ID NO 34: 12-mer from EphB4 panning; printed IPWTQ[image]MAMSPM (IPWTQHMAMSPM)

Eph receptor binding selectivity of immobilized biotinylated peptide (Eph receptor Fc proteins): less specific
Molecule: SEQ ID NO 14: 12-mer from EphB2 panning; printed SHW[image]ISPYSLLS (SHWPISPYSLLS)
